{"source": "patent EP4800013A1", "about": "“PARG INHIBITOR” (Shanghai Qilu Pharmaceutical Research and Development …, priority 2023, dated 2025)"}
{"tested_on": "KURAMOCHI cells", "test": "Inhibition of proliferation of KURAMOCHI cells (CellTiter-Glo, intracellular ATP)", "assay_type": "cell-based", "conditions": "168 h, incubated for 7 days, read-out: IC50 against KURAMOCHI cells", "summary_of_the_method": "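KURAMOCHI cells seeded at 4000/well, incubated overnight, then treated with 9-point 1:4 compound series from 10 µM (0.5% DMSO) for 7 days at 37°C, 5% CO2. Viability read by CellTiter-Glo luminescence; inhibition normalised to medium-only (100%) and DMSO (0%) controls, IC50 from variable-slope four-parameter fit.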", "units": {"IC50": "nM"}}
{"smiles": "CCc1nc2n(-c3nnc(C(F)F)s3)c3cc(S(=O)(=O)NC4(C)CC4)cc(N4C[C@H](C)N[C@@H](C)C4)c3n2n1", "note": "[Compound 065R]", "IC50": 2}
{"smiles": "C[C@H]1CN(c2cc(S(=O)(=O)NC3(C)CC3)cc3c2n2nc(C(F)F)nc2n3-c2nnc(C(F)F)s2)C[C@H](C)N1", "note": "[Compound 065S]", "IC50": 2}
{"smiles": "C[C@H]1CN(c2cc(S(=O)(=O)NC3(C)CC3)cc3c2n2nc(C(F)(F)F)nc2n3-c2nnc(C(F)F)s2)C[C@H](C)N1", "note": "[Compound 065W]", "IC50": 4}
{"tested_on": "not listed separately", "test": "Pharmacokinetic evaluation in BALB/c nude mice (PO)", "assay_type": "in vivo", "conditions": "female, mouse, plasma, 30 mg/kg", "protocol": "Using mice as test animals, the compounds of the present disclosure were administered via intravenous bolus and oral injection. Plasma samples were collected at specific time points. Compound concentrations in plasma were determined by LC-MS/MS, and PK parameters were calculated to characterize the pharmacokinetic behavior of the compounds of the present disclosure in plasma.\nBALB/c nude mice, female, supplied by Jiangsu GemPharmatech Co., Ltd.\nDosing regimen for BALB/c nude mice: The PO (oral) experimental group consisted of 3 mice, which were administered at a dose of 30 mg/kg and a volume of 10 mL/kg. The dosing vehicle was 5% (v/v) DMSO/10% (v/v) Solutol/85% (v/v) saline.\nFollowing administration, 0.025 mL of blood was collected via venipuncture at the following time points: 0.0833 (IV), 0.25, 0.5, 1, 2, 4, 8, and 24 hours. Blood samples were collected into EDTA-K2 tubes and centrifuged at 4°C and 2000 g for 10 minutes to separate plasma, which was stored at -80°C.\nMouse plasma processing: • 1) 15 µL of plasma was mixed with 200 µL of acetonitrile for protein precipitation. The mixture was vortexed and centrifuged for 15 minutes. • 2) The supernatant after processing was diluted with water and analyzed by LC/MS/MS to determine the concentration of the test compound.\nPharmacokinetic parameters were calculated using WinNonlin 6.1. Specifically, Cmax represents maximum plasma concentration, CL represents clearance, Vss represents volume of distribution at steady state, T1/2 represents terminal elimination half-life, MRTInf represents mean residence time, AUC represents area under the plasma concentration-time curve, and F represents bioavailability. Table 18: Pharmacokinetic parameters of the compounds of the present disclosure in CD-1 mice", "units": {"AUC": "µM·h", "Cmax": "nM", "MRT inf": "h", "half-life": "h"}}
{"smiles": "CCc1nc2n(-c3nnc(C(F)F)s3)c3cc(S(=O)(=O)NC4(C)CC4)cc(N4C[C@H](C)N[C@@H](C)C4)c3n2n1", "note": "[Compound 065R]", "AUC": 9.52, "Cmax": 1620, "MRT inf": 4.39, "half-life": 2.62}
{"smiles": "C[C@H]1CN(c2cc(S(=O)(=O)NC3(C)CC3)cc3c2n2nc(C(F)F)nc2n3-c2nnc(C(F)F)s2)C[C@H](C)N1", "note": "[Compound 065S]", "AUC": 9.21, "Cmax": 1340, "MRT inf": 4.8, "half-life": 2.69}
{"smiles": "C[C@H]1CN(c2cc(S(=O)(=O)NC3(C)CC3)cc3c2n2nc(C(F)(F)F)nc2n3-c2nnc(C(F)F)s2)C[C@H](C)N1", "note": "[Compound 065W]", "AUC": 16.4, "Cmax": 1340, "MRT inf": 7.74, "half-life": 5.28}
